# In ChEMBL document CHEMBL2010743, “Adamantyl N-benzylbenzamide: new series of depigmentation agents with tyrosinase inhibitory activity” (Bioorg Med Chem Lett, 2012):
# Tests used:
# B16 [1] = assay: cells; conditions: Mus musculus
# Tyrosinase = target: T1, Tyrosinase (Agaricus bisporus, UniProt O42713); assay: Inhibition of mushroom tyrosinase
# T1 sequence (O42713 whole entry): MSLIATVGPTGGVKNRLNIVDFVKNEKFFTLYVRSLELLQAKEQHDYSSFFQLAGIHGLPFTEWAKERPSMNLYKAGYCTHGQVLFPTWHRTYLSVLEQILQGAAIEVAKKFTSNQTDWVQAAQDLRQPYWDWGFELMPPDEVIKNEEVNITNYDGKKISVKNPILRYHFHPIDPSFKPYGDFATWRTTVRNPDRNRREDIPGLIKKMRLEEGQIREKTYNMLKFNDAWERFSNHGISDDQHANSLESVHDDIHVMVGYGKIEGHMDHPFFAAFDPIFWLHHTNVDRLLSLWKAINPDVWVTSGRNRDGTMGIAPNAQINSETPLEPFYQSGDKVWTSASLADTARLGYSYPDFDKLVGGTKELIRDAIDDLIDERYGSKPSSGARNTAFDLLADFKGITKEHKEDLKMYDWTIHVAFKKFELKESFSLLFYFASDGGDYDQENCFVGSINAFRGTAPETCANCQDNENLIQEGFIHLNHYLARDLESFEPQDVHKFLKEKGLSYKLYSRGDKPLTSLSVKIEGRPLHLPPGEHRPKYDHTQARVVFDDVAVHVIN
# [2] = target: T2, Tyrosinase (Agaricus bisporus) (UniProt O42713); assay: Ratio of kojic acid IC50 to compound IC50 for mushroom tyrosinase
# T2 sequence (whole entry): T1 sequence (O42713 whole entry)
# in vitro = conditions: mouse, B16 cells
# Description: Cytotoxicity in mouse B16 cells assessed as cell viability at 10 uM after 72 hrs
# [3] = target: T2, Tyrosinase (Agaricus bisporus); assay: Inhibition of mushroom tyrosinase at 1 uM
# B16 [4] = assay: Antimelanogenic activity in mouse B16 cells assessed as inhibition of melanogenesis at 1 uM; type: functional
# [5] = Cytotoxicity in mouse B16 cells assessed as cell viability at 1 uM after 72 hrs; type: cell-based; conditions: read-out: Activity
# B16 [6] = assay: Antimelanogenic activity in mouse B16 cells assessed as inhibition of melanogenesis at 3 uM; type: functional
# B16 [7] = assay: Ratio of kojic acid IC50 to compound IC50 for inhibition of melanogenesis in mouse B16 cells; type: functional
SMILES,IC50 (B16 [1]),IC50 (Tyrosinase),"viability at 72 h, 10 µM (in vitro)",also measured
CCCCc1ccc(O)cc1O [RUCINOL],20 µM,,,
COc1ccc(C(=O)NCc2ccc(O)cc2O)c(OC)c1,14.2 µM,400 nM,100%,Ratio IC50 [2]: 30
COc1ccc(CNC(=O)c2cc(C34CC5CC(CC(C5)C3)C4)c(O)cc2O)c(OC)c1,,,,inhibition [3]: < 5%
O=C(NCc1ccc(O)cc1O)c1cc(C23CC4CC(CC(C4)C2)C3)c(O)cc1O,,1100 nM,62%,"inhibition at 1 µM (B16 [4]): < 5%; viability at 72 h, 1 µM [5]: 86%; inhibition at 3 µM (B16 [6]): 90%"
O=C(NCc1ccccc1O)c1cc(C23CC4CC(CC(C4)C2)C3)c(O)cc1O,,,,inhibition [3]: < 5%
O=C(NCc1ccc(O)cc1O)c1ccc(O)c(C23CC4CC(CC(C4)C2)C3)c1,,900 nM,41%,"inhibition at 1 µM (B16 [4]): < 5%; viability at 72 h, 1 µM [5]: 99%"
O=C(NCc1ccc(O)cc1)c1cc(C23CC4CC(CC(C4)C2)C3)c(O)cc1O,,,,inhibition [3]: < 5%
COc1cc(OC)c(C23CC4CC(CC(C4)C2)C3)cc1C(=O)NCc1ccc(O)cc1O,1.1 µM,900 nM,95%,Ratio IC50 (B16 [7]): 200
COc1cc(O)c(C(=O)NCc2ccc(O)cc2O)cc1C12CC3CC(CC(C3)C1)C2,1.8 µM,800 nM,100%,Ratio IC50 (B16 [7]): 200
O=C(NCc1ccc(O)cc1O)c1ccc(O)cc1O,26.7 µM,900 nM,100%,Ratio IC50 [2]: 30
COc1ccc(C(=O)NCc2ccc(O)cc2O)c(O)c1,27.6 µM,300 nM,96%,Ratio IC50 [2]: 30
COc1ccc(C(=O)NCc2ccc(O)cc2O)cc1C12CC3CC(CC(C3)C1)C2,,1400 nM,44%,"inhibition at 1 µM (B16 [4]): < 5%; viability at 72 h, 1 µM [5]: 100%"
